Structures are written as SMILES.

The target in the experiment is Carbonic anhydrase 2 (Bos taurus, UniProt P00921). In words: Carbonic Anhydrase (bCAII) Inhibition Assay. Conditions: pH 7.2. On the procedure: This was assay performed using buffer containing Tris and HEPES at the pH of 7.2-7.9 and a total concentration of 20 mM. 96-well plates were filled with 140 µL of Tris-HEPES solution, 20 µL of bovine erythrocyte carbonic anhydrase II solution (0.1-0.2 mg/2000 mL), and 20 µL of 0.7 mM para-nitrophenyl acetate (diluted in ethanol). Test compounds were incubated at 25-28 °C for 15 min prior to addition of para-nitrophenyl acetate, which starts the reaction. The reaction was allowed to taking place for 30 min at 25-28 °C. All compounds tested in triplicate at different concentration. The amount of product that forms during thereaction monitored at 400 nm after 30 min using SPECTRA-max 340 spectrophotometer, Molecular Devices (USA).
Carbonic anhydrase 2, sequence (P00921 whole entry): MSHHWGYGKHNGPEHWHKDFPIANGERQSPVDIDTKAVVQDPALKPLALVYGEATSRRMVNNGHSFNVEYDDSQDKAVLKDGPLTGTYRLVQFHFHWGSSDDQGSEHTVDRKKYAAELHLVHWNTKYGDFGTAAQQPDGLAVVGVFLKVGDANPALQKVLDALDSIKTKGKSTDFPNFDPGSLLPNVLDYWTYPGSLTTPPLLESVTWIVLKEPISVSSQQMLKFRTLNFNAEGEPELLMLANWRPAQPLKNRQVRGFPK
As for `O=S(=O)(Nc1ccc(C(c2c[nH]c3ccccc23)c2c[nH]c3ccccc23)cc1)c1cc(Cl)cc(Cl)c1O` [3,5-Dichloro-N-(4-(di(1H-indol-3-yl)methyl)phenyl)-2-hydroxybenzenesulfonamide (3k)], the IC50 is 58.1 µM.

For the compound `O=S(=O)(Nc1ccc(C(c2c[nH]c3ccc(Br)cc23)c2c[nH]c3ccc(Br)cc23)cc1)c1cc(Cl)c(Cl)cc1Cl` [N-(4-(bis(5-bromo-1H-indol-3-yl)methyl)phenyl)-2,4,5-trichlorobenzenesulfonamide (4f)], half-maximal inhibition (IC50) was put at 40.3 µM.

On to `O=[N+]([O-])c1ccc(S(=O)(=O)Nc2ccc(C(c3c[nH]c4ccc(Br)cc34)c3c[nH]c4ccc(Br)cc34)cc2)c([N+](=O)[O-])c1` [N-(4-(bis(5-bromo-1H-indol-3-yl)methyl)phenyl)-2,4-dinitrobenzenesulfonamide (4g)], for which the IC50 is 28.9 µM.

With `Cc1ccc([N+](=O)[O-])cc1S(=O)(=O)Nc1ccc(C(c2c[nH]c3ccc(Br)cc23)c2c[nH]c3ccc(Br)cc23)cc1` [N-(4-(bis(5-bromo-1H-indol-3-yl)methyl)phenyl)-2-methyl-5-nitrobenzenesulfonamide (4i)], 44.3 µM corresponded to half-maximal inhibition (IC50).

Consider `O=[N+]([O-])c1ccccc1S(=O)(=O)Nc1ccc(C(c2c[nH]c3ccc(Br)cc23)c2c[nH]c3ccc(Br)cc23)cc1` [N-(4-(bis(5-bromo-1H-indol-3-yl)methyl)phenyl)-2-nitrobenzenesulfonamide (4d)], for which 65.2 µM corresponded to half-maximal inhibition (IC50).

As to `O=S(=O)(Nc1ccc(C(c2c[nH]c3ccc(Br)cc23)c2c[nH]c3ccc(Br)cc23)cc1)c1cc(Cl)cc(Cl)c1O` [N-(4-(bis(5-bromo-1H-indol-3-yl)methyl)phenyl)-3,5-dichloro-2-hydroxybenzenesulfonamide (4k)], the midpoint of inhibition, the IC50, lay at 18.8 µM.

`O=[N+]([O-])c1cc(S(=O)(=O)Nc2ccc(C(c3c[nH]c4ccc(Br)cc34)c3c[nH]c4ccc(Br)cc34)cc2)ccc1Cl` [N-(4-(bis(5-bromo-1H-indol-3-yl)methyl)phenyl)-4-chloro-3-nitrobenzenesulfonamide (4h)] gave an IC50 of 83.1 µM. This IC50 lies about 4.4-fold higher than the previous one.

In turn, `O=[N+]([O-])c1ccc(S(=O)(=O)Nc2ccc(C(c3c[nH]c4ccc(Br)cc34)c3c[nH]c4ccc(Br)cc34)cc2)cc1` [N-(4-(bis(5-bromo-1H-indol-3-yl)methyl)phenyl)-4-nitrobenzenesulfonamide (4b)] came in with an IC50 of 63.9 µM.

`O=S(=O)(Nc1ccc(C(c2c[nH]c3ccc(Br)cc23)c2c[nH]c3ccc(Br)cc23)cc1)c1ccc2ccccc2c1` [N-(4-(bis(5-bromo-1H-indol-3-yl)methyl)phenyl)naphthalene-2-sulfonamide (4c)]: 90.4 µM corresponded to half-maximal inhibition (IC50).

`O=S(=O)(Nc1ccc(C(c2c[nH]c3ccc(Cl)cc23)c2c[nH]c3ccc(Cl)cc23)cc1)c1cc(Cl)c(Cl)cc1Cl` [N-(4-(bis(5-chloro-1H-indol-3-yl)methyl)phenyl)-2,4,5-trichlorobenzenesulfonamide (5f)] returned an IC50 of 16.3 µM.

As for `O=[N+]([O-])c1ccc(S(=O)(=O)Nc2ccc(C(c3c[nH]c4ccc(Cl)cc34)c3c[nH]c4ccc(Cl)cc34)cc2)c([N+](=O)[O-])c1` [N-(4-(bis(5-chloro-1H-indol-3-yl)methyl)phenyl)-2,4-dinitrobenzenesulfonamide (5g)], inhibition was half-maximal at 15.6 µM (IC50).

Compound `Cc1ccc([N+](=O)[O-])cc1S(=O)(=O)Nc1ccc(C(c2c[nH]c3ccc(Cl)cc23)c2c[nH]c3ccc(Cl)cc23)cc1` [N-(4-(bis(5-chloro-1H-indol-3-yl)methyl)phenyl)-2-methyl-5-nitrobenzenesulfonamide (5i)] came in with an IC50 of 14.3 µM.

`O=[N+]([O-])c1ccccc1S(=O)(=O)Nc1ccc(C(c2c[nH]c3ccc(Cl)cc23)c2c[nH]c3ccc(Cl)cc23)cc1` [N-(4-(bis(5-chloro-1H-indol-3-yl)methyl)phenyl)-2-nitrobenzenesulfonamide (5d)] yielded an IC50 of 44.5 µM.

`O=S(=O)(Nc1ccc(C(c2c[nH]c3ccc(Cl)cc23)c2c[nH]c3ccc(Cl)cc23)cc1)c1cc(Cl)cc(Cl)c1O` [N-(4-(bis(5-chloro-1H-indol-3-yl)methyl)phenyl)-3,5-dichloro-2-hydroxybenzenesulfonamide (5k)] gave an IC50 of 20.2 µM.

`O=[N+]([O-])c1cc(S(=O)(=O)Nc2ccc(C(c3c[nH]c4ccc(Cl)cc34)c3c[nH]c4ccc(Cl)cc34)cc2)ccc1Cl` [N-(4-(bis(5-chloro-1H-indol-3-yl)methyl)phenyl)-4-chloro-3-nitrobenzenesulfonamide (5h)]: the 50% inhibitory concentration (IC50) worked out at 68.9 µM.

Take `O=S(=O)(Nc1ccc(C(c2c[nH]c3ccc(Cl)cc23)c2c[nH]c3ccc(Cl)cc23)cc1)c1ccc(Cl)cc1` [N-(4-(bis(5-chloro-1H-indol-3-yl)methyl)phenyl)-4-chlorobenzenesulfonamide (5l)]: the IC50 worked out at 45.5 µM.

Compound `COc1ccc(Cl)cc1S(=O)(=O)Nc1ccc(C(c2c[nH]c3ccc(Cl)cc23)c2c[nH]c3ccc(Cl)cc23)cc1` [N-(4-(bis(5-chloro-1H-indol-3-yl)methyl)phenyl)-5-chloro-2-methoxybenzene sulfonamide (5e)] returned a concentration for half-maximal inhibition (IC50) of 176 µM.

`O=[N+]([O-])c1ccccc1S(=O)(=O)Nc1ccc(C(c2c[nH]c3ccccc23)c2c[nH]c3ccccc23)cc1` [N-(4-(di(1H-indol-3-yl)methyl)phenyl)-2-nitrobenzenesulfonamide (3d)]: half-maximal inhibition (IC50) required 35.9 µM.

Usually IC50 stands for the concentration that inhibits the measured activity by half. Read a high IC50 as weaker potency in that assay.
